# Assays:
# Assay type in all cases: biochemical
# [1] = target: T1, ROCK1 (Homo sapiens, UniProt Q13464); assay: In vitro Rho kinase inhibitory activity assay, ADP-Glo, Method A (ATP 10 μM); conditions: read-out: Method A ROCK 1 (Ki)
# Method: (§1) In Vitro Inhibitory Activity Assay Description (Method A)
# (§2) The effectiveness of compounds of the present invention to inhibit Rho kinase activity can be determined in a 10 μL assay containing 40 mM Tris pH7.5, 20 mM MgCl2 0.1 mg/mL BSA, 50 μM DTT and 2.5 μM peptide substrate (Myelin Basic Protein) using an ADP-Glo kit (Promega). Compounds were dissolved in DMSO such that the final concentration of DMSO was 1% in the assay. All reactions/incubations are performed at 25° C. Compound (2 μL) and either Rho kinase 1 or 2 (4 μL) were mixed and incubated for 30 min. Reactions were initiated by addition of ATP (4 μL) such that the final concentration of ATP in the assay was 10 μM. After a 1 hour incubation 10 μL of ADP-Glo Reagent was added and after a further 45 minute incubation 20 μL of Kinase Detection Buffer was added and the mixture incubated for a further 30 minutes. The luminescent signal was measured on a luminometer. […] Compounds were tested in dose-response format and the inhibition of kinase activity was calculated at each concentration of compound. To determine the IC50 (concentration of compound required to inhibit 50% of the enzyme activity) data were fit to a plot of % inhibition vs Log10 compound concentration using a sigmoidal fit with a variable slope and fixing the maximum to 100% and the minimum to 0%. To determine the Ki values the Cheng-Prusoff equation was utilized (Ki=IC50/(1+[S]/Km).
# [2] = target: T2, ROCK2 (Homo sapiens, UniProt O75116); assay: as above; conditions: read-out: Method A ROCK 2 (Ki)
# Method: as §1, §2
# [3] = target: T1, ROCK1; assay: In vitro Rho kinase inhibitory activity assay, ADP-Glo, Method B (ATP 200 μM); conditions: read-out: Method B ROCK 1 (Ki)
# Procedure, shortened: (§3)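 Enzyme preincubated 30 min with compound in 40 mM Tris pH 7.5, 20 mM MgCl2, 0.1 mg/mL BSA, 50 μM DTT, 2.5 μM myelin basic protein, 1% DMSO, 25 °C; 1 h reaction at 200 μM ATP. ADP-Glo luminescence; IC50 from variable-slope sigmoidal fit (0–100% fixed), Ki via Cheng-Prusoff.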
# [4] = target: T2, ROCK2; assay: as above; conditions: read-out: Method B ROCK 2 (Ki)
# Procedure, shortened: as §3
# [5] = target: PKA (Homo sapiens, UniProt P17612); assay: In vitro inhibitory activity assay for PKA, ADP-Glo, reported as selectivity ratio vs ROCK2; conditions: Ki for PKA divided by Ki of ROCK2 (Method B)
# Method: In Vitro Inhibitory Activity Assay Description for PKA
# The effectiveness of compounds of the present invention to inhibit PKA activity can be determined in a 10 μL assay containing 40 mM Tris pH7.5, 20 mM MgCl2 0.1 mg/mL BSA, 50 μM DTT and 260 μM peptide substrate (kemptide) using an ADP-Glo kit (Promega). Compounds were dissolved in DMSO such that the final concentration of DMSO was 1% in the assay. All reactions/incubations are performed at 25° C. Compound and PKA enzyme (6 μL) were mixed and incubated for 30 min. Reactions were initiated by addition of ATP (4 μL) such that the final concentration of ATP in the assay was 10 μM. After a 30 minute incubation 10 μL of ADP-Glo Reagent was added and after a further 1 hour incubation 20 μL of Kinase Detection Buffer was added and the mixture incubated for a further 45 minutes. The luminescent signal was measured on a luminometer. […] Compounds were tested in dose-response format and the inhibition of kinase activity was calculated at each concentration of compound. To determine the IC50 (concentration of compound required to inhibit 50% of the enzyme activity) data were fit to a plot of % inhibition vs Log10 compound concentration using a sigmoidal fit with a variable slope and fixing the maximum to 100% and the minimum to 0%. To determine the Ki values the Cheng-Prusoff equation was utilized (Ki=IC50/(1+[S]/Km).
# In vitro inhibitory activities for PKA were reported as selectivity ratio vs. ROCK2. Selectivity ratio PKA/ROCK2 was calculated by dividing the Ki value for PKA by Ki value of ROCK2 (Method B) and reported into table 1.
# T2 sequence (O75116 whole entry): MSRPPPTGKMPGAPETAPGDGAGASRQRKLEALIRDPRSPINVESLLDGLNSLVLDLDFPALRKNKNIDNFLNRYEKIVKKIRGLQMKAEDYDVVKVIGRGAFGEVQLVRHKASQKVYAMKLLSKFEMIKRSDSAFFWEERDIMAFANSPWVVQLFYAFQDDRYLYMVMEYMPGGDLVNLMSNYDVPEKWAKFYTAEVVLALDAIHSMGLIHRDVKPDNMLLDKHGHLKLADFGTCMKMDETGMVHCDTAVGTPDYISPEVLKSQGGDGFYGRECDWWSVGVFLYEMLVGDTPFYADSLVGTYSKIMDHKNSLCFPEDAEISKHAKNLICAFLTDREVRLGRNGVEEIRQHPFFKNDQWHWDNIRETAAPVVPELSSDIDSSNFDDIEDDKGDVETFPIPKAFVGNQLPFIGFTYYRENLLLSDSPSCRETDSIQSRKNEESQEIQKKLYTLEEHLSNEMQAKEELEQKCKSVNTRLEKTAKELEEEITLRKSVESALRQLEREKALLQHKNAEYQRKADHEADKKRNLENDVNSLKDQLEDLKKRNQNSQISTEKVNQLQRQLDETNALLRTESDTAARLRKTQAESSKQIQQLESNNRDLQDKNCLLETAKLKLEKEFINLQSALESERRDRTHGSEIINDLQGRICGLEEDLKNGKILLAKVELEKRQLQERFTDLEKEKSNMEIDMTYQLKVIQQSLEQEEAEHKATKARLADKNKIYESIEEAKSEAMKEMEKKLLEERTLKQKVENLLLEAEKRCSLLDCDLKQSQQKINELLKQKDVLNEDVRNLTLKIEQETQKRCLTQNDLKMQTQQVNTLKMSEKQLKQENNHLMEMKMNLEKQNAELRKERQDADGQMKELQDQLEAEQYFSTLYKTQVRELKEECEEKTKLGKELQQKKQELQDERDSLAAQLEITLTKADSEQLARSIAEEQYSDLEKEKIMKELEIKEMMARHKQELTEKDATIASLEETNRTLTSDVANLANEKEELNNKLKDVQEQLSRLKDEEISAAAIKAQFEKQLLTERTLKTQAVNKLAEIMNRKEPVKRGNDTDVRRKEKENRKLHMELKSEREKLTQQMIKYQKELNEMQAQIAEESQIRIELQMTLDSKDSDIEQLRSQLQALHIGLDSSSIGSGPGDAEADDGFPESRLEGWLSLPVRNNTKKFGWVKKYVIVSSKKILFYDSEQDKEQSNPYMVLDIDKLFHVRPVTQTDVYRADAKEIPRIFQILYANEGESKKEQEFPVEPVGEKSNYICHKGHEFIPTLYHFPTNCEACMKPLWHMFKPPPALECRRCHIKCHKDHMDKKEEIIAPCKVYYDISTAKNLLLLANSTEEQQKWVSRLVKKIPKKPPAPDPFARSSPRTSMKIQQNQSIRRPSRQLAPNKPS
# T1 sequence (Q13464 whole entry): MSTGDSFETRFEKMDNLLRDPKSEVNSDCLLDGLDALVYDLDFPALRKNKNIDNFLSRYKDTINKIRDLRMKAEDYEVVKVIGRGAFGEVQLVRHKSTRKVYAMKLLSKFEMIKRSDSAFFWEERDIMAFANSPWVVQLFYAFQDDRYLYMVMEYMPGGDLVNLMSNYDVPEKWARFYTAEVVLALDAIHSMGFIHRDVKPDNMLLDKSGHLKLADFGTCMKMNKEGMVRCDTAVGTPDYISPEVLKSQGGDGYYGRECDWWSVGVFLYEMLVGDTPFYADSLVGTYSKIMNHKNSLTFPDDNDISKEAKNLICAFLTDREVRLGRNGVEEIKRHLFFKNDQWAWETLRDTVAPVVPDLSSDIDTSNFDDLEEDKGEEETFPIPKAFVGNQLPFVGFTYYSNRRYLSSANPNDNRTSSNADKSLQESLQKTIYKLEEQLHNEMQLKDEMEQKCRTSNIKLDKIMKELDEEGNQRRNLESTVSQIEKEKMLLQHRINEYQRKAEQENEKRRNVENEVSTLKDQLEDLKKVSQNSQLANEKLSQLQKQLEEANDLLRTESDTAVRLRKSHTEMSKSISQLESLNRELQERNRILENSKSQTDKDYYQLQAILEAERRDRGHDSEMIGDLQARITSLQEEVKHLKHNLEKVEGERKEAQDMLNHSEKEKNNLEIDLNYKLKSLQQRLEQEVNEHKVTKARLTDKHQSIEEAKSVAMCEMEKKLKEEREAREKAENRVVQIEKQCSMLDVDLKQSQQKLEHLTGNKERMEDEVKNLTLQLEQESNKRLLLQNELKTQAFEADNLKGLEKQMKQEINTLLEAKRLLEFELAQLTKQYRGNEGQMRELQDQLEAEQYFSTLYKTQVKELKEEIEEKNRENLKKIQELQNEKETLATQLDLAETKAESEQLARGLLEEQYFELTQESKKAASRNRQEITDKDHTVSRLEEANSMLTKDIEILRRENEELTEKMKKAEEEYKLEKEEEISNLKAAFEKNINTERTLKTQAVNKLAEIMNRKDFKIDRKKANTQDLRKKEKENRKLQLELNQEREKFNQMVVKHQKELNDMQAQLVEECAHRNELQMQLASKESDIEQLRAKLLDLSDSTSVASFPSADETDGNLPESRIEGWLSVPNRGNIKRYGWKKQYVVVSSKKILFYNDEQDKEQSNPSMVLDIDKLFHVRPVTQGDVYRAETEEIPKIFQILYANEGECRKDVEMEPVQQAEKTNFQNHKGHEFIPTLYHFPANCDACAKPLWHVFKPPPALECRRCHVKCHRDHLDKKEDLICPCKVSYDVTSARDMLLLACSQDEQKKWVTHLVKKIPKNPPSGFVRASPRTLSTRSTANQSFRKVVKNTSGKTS
Ki [1],Ki [2],Ki [3],Ki [4],Ratio (PKA/ROCK2) [5],SMILES
≤ 3 nM,≤ 3 nM,≤ 3 nM,≤ 3 nM,*** (ratio≥10),"O=C(Nc1cccc(CNc2ncc(-c3ccncc3)c3c2CCO3)c1)c1ccc(CN2CCOCC2)cc1 [Example 36, 4-(morpholinomethyl)-N-(3-(((7-(pyridin-4-yl)-2,3-dihydrofuro[3,2-c]pyridin-4-yl)amino)methyl)phenyl)benzamide]"
≤ 3 nM,≤ 3 nM,≤ 3 nM,≤ 3 nM,*** (ratio≥10),"CN1CCc2sc(C(=O)Nc3cccc(CNc4ncc(-c5ccncc5)c5c4CCO5)c3)nc2C1 [Example 54, 5-methyl-N-(3-(((7-(pyridin-4-yl)-2,3-dihydrofuro[3,2-c]pyridin-4-yl)amino)methyl)phenyl)-4,5,6,7-tetrahydrothiazolo[4,5-c]pyridine-2-carboxamide]"
3 to 30 nM,3 to 30 nM,3 to 30 nM,3 to 30 nM,*** (ratio≥10),"CNC(=O)c1cccc(CNc2ncc(-c3ccncc3)c3c2CCO3)c1 [Example 20, N-methyl-3-(((7-(pyridin-4-yl)-2,3-dihydrofuro[3,2-c]pyridin-4-yl)amino)methyl)benzamide]"

# More lines, now with the values behind:
SMILES,Ki [1],Ki [2],Ki [3],Ki [4],Ratio (PKA/ROCK2) [5]
"CN1CCN(CCCC(=O)Nc2cccc(CNc3ncc(-c4ccncc4)c4c3CCO4)c2)CC1 [Example 35, 4-(4-methylpiperazin-1-yl)-N-(3-(((7-(pyridin-4-yl)-2,3-dihydrofuro[3,2-c]pyridin-4-yl)amino)methyl)phenyl)butanamide]",≤ 3 nM,≤ 3 nM,≤ 3 nM,≤ 3 nM,*** (ratio≥10)
"CN1CCC(CCNC(=O)c2cccc(CNc3ncc(-c4ccncc4)c4c3CCO4)c2)CC1 [Example 22, N-(2-(1-methylpiperidin-4-yl)ethyl)-3-(((7-(pyridin-4-yl)-2,3-dihydrofuro[3,2-c]pyridin-4-yl)amino)methyl)benzamide]",≤ 3 nM,≤ 3 nM,≤ 3 nM,≤ 3 nM,*** (ratio≥10)
"O=C(NCCN1CCOCC1)c1cccc(CNc2ncc(-c3ccncc3)c3c2CCO3)c1 [Example 28, N-(2-morpholinoethyl)-3-(((7-(pyridin-4-yl)-2,3-dihydrofuro[3,2-c]pyridin-4-yl)amino)methyl)benzamide]",≤ 3 nM,≤ 3 nM,3 to 30 nM,3 to 30 nM,*** (ratio≥10)
"c1ccc(CNc2ncc(-c3ccncc3)c3c2CCO3)cc1 [Example A, N-Benzyl-7-(pyridin-4-yl)-2,3-dihydrofuro[3,2-c]pyridin-4-amine, reference compound]",> 30 nM,> 30 nM,> 30 nM,> 30 nM,* (ratio<5)
"O=C(NCCN1CCCCC1)c1cccc(CNc2ncc(-c3ccncc3)c3c2CCO3)c1 [Example 30, N-(2-(piperidin-1-yl)ethyl)-3-(((7-(pyridin-4-yl)-2,3-dihydrofuro[3,2-c]pyridin-4-yl)amino)methyl)benzamide]",≤ 3 nM,≤ 3 nM,3 to 30 nM,3 to 30 nM,*** (ratio≥10)

# Source: patent US12534474B2, “Dihydrofuropyridine derivatives as rho-kinase inhibitors” (CHIESI FARMACEUTICI S.P.A., priority 2020, dated 2026)
